Results taken from patent US11969425B2, “Inhibitor of indoleamine-2,3-dioxygenase (IDO)” (InventisBio LLC, priority 2016, dated 2024).

How the values were obtained:
[1] = system: kynurenine production in HeLa cells; experiment: Inhibition of kynurenine production in HeLa cells; assay type: cell-based, human; details: Homo sapiens, HeLa, 48 h, HeLa cells, human IFN-γ 50 ng/mL, kynurenine read at 480 nm, read-out: IC50
Protocol: The effect of compounds described herein on the inhibition of kynurenine production in HeLa cells (derived from human cervical cancer) was determined. HeLa cells were seeded into a 96-well culture plate at a density of 5×10^3 per well in RPMI1640/phenol red free media (from GIBCO) with 2 mM L-glutamine and 10% fetal bovine serum (FBS, from GIBCO) and grown overnight in a 37° C. incubator with 5% CO2. Twenty-four hours later, human IFN-γ (from GIBCO) (final concentration 50 ng/mL) and test compound solutions (serially diluted to different wells) were added to each well with a final volume of 200 uL per well. Forty-eight hours after incubation with compounds, 140 uL supernatant was taken from each well and was transferred to a new 96-well plate. Ten microliters of 6.1 N trichloroacetic acid were added into each well, mixed and incubated at 50° C. for 30 minutes. The reaction mixture was then centrifuged for 10 minutes at 2500 rpm and 100 uL of the supernatant per well was transferred to another 96 well plate and mixed with 100 uL of 2% (w/v) p-dimethylaminobenzaldehyde in acetic acid. The yellow color derived from kynurenine was measured at 480 nm using a SPECTRAmax i3 reader. Each compound concentration was done in triplicates and compound IC50 value was calculated using nonlinear regression using Graphpad Prism 5.0.
The inhibitory activity of representative compounds described herein, compared with another IDO inhibitor, such as INCB-24360, Controls 1 and 2 are shown in Table 2.

pooled human hepatocytes = experiment: Human hepatocyte clearance study; assay type: in vitro ADME; details: pooled human hepatocytes, 120 min
Protocol: (§1) The in vitro human hepatocyte clearance of compounds described here was studied using pooled human hepatocytes purchased from BioreclamationIVT (Westbury, NY, Cat #X008001, Lot #TQJ). The assay was conducted according to manufacture's instruction. Briefly, 10 mM stock solutions of test compounds and positive control (Verapamil) were prepared in 100% DMSO. Thawing media (50 mL) used in the study consists of: 31 mLWilliams E medium (GIBCO Cat #12551-032); 15 mL isotonic percoll (GE Healthcare Cat #17-0891-09); 500 uL 100XGlutaMax (GIBCO Cat #35050); 750 uL HEPES (GIBCO Cat #15630-080); 2.5 mL FBS (Corning Cat #35-076*CVR); 50 uL human insulin (GIBCO Cat #12585-014) and 5 uL dexamethasone (NICPBP). Incubation media is made of Williams E medium supplemented with 1xGlutaMax. Both thawing medium and incubation medium (serum-free) were placed in a 37° C. water bath for at least 15 minutes prior to use. Compound stock solutions were diluted to 100 μM by combining 198 μL of 50% acetonitrile/50% water and 2 μL of 10 mM stock solution. Verapamil was use as positive control in the assay. Vials of cryopreserved hepatocytes were removed from storage and thawed in a 37° C. water bath with gentle shaking. Contents of the vial were poured into the 50 mL thawing medium conical tube. Vials were centrifuged at 100 g for 10 minutes at room temperature. Thawing medium was aspirated and hepatocytes were re-suspended with serum-free incubation medium to yield ˜1.5×10^6 cells/mL. Hepatocyte viability and density were counted using a Trypan Blue exclusion, and then cells were diluted with serum-free incubation medium to a working cell density of 0.5×10^6 viable cells/mL. Then, a portion of the hepatocytes at 0.5×10^6 viable cells/mL was boiled for 5 minutes prior to adding to the plate as negative control to eliminate the enzymatic activity so that little or no substrate turnover should be observed. The boiled hepatocytes were used to prepare negative samples. Aliquots of 198 μL hepatocytes were dispensed into each well of a 96-well non-coated plate. The plate was placed in the incubator on an orbital shaker at 500 rpm for approximately 10 minutes. Aliquots of 2 μL of the 100 μM test compound or positive control were added into respective wells of the non-coated 96-well plate to start the reaction. This assay was performed in duplicate. The plate was incubated in the incubator on an orbital shaker at 500 rpm for the designated time points. Twenty-five microliter of contents were transferred and mixed with 6 volumes (150 μL) of cold acetonitrile with IS (200 nM imipramine, 200 nM labetalol and 200 nM diclofenac) to terminate the reaction at time points of 0, 15, 30, 60, 90 and 120 minutes. Samples were centrifuged at 3,220 g for 25 minutes and aliquots of 150 μL of the supernatants were used for LC-MS/MS analysis. For data analysis, all calculations were carried out using Microsoft Excel. Peak areas were determined from extracted ion chromatograms. The in vitro half-life (t1/2) of parent compound was determined by regression analysis of the percent parent disappearance vs. time curve. The in vitro half-life (in vitro t1/2) was determined from the slope value: in vitro t1/2=0.693/k. […] Scaling factors for in vivo intrinsic clearance prediction using human hepatocytes are listed as: liver weight (g liver/kg body weight): 25.7; hepatocyte concentration (10^6 cells/g liver): 99; scaling factor: 2544.3.

[2] = Human hepatocyte clearance study; assay type: in vitro ADME; details: pooled cryopreserved human hepatocytes (suspension); for CLint scaled at 1 µM: human, scaled up from in vitro t1/2, scaling factor 2544.3, read-out: Human Scale-up Clint; for hepatocyte CLint at 1 µM / half-life at 1 µM: pooled human hepatocytes; for hepatocyte CLint at 1 µM: read-out: Human In vitro Clint (μL/min/10^6 cells); for half-life at 1 µM: read-out: Human In vitro T1/2
Protocol: as §1

[3] = system: T cells and HeLa cells co-culture; experiment: T cells and HeLa cells co-culture assay (IFN-gamma production); assay type: cell-based, human; details: Homo sapiens; CD3 T cells + HeLa cells, 72 hr, FIG. 4; read-out: EC50, production of IFN-gamma in the T cells and HeLa cells co-culture media
Protocol: HeLa cells were seeded into 96-well plate (5000 cells per well in 100 μL of cell growth media DMEM with 10% FBS and 1% pen/strep) and incubated at 37° C. with 5% CO2. After overnight incubation, 200 μL of INF-gamma (50 ng/ml in growth media) was added to the plate and returned to incubator for another 48 hr. SepMater™-50 centrifuge tube was used to isolate PBMC from human donor according to manufacture's instruction (Stemcell). The CD3 T cell was then isolated from the PBMC using EasySep Human T cell isolation kit (Stemcell). Wash the 96-well plat twice with 200 μL of co-culture media (RPMI-1640+10% FBS+1% Pen/strep). Adjust the CD3 T cells density to 5×10^5 cells/ml with high dose anti-CD3/CD28 beads and co-culture medium (RPMI-1640+10% FBS+1% Pen/strep) and seed 200 μL/well into 96-well plate. Compound at different concentration was added to each well and the plate was incubated for a further 72 hr. Level of INF-gamma in the co-culture media (100 μL) was analyzed using the Human IFN-gamma ELISA Ready-SET-GO kit from eBioscience.

SMILES: CCN(c1ncc(C2(C(=O)O)CCC2)cc1Nc1ccc(Cl)cn1)C1CCOCC1 [Compound 123]
- IC50 [1]: 0.3 nM
- Human Hepatocyte Remaining Percentage @ 120 min (pooled human hepatocytes): 100
- CLint scaled at 1 µM [2]: 3.7 mL/min/kg
- hepatocyte CLint at 1 µM [2]: 1.4 µL/min/1e6 cells
- half-life at 1 µM [2]: 16.1 h

SMILES: CC(C)CN(CC(C)C)c1ccc(C2(C(=O)O)CCC2)cc1Nc1ccc(Cl)cn1 [Compound 105]
- IC50 [1]: 0.3 nM
- Human Hepatocyte Remaining Percentage @ 120 min (pooled human hepatocytes): 81
- CLint scaled at 1 µM [2]: 13 mL/min/kg
- hepatocyte CLint at 1 µM [2]: 5.1 µL/min/1e6 cells
- half-life at 1 µM [2]: 4.58 h

SMILES: CC(C)CN(CC(C)C)c1ccc(C(CC(=O)O)C(F)(F)F)cc1NC(=O)Nc1ccc(F)cc1F (stereo not drawn) [Control 1, 3-(3-(3-(2,4-difluorophenyl)ureido)-4-(diisobutylamino)phenyl)-4,4,4-trifluorobutanoic acid, reference compound]
- IC50 [1]: 0.8 nM
- Human Hepatocyte Remaining Percentage @ 120 min (pooled human hepatocytes): 76
- CLint scaled at 1 µM [2]: 11 mL/min/kg
- hepatocyte CLint at 1 µM [2]: 4.1 µL/min/1e6 cells
- half-life at 1 µM [2]: 5.6 h

SMILES: CC(C)CN(CC(C)C)c1ccc(C2(C(=O)O)CCCC2)cc1Nc1ccccc1 [Compound 48]
- IC50 [1]: 8.4 nM
- Human Hepatocyte Remaining Percentage @ 120 min (pooled human hepatocytes): 105
- CLint scaled at 1 µM [2]: 2 mL/min/kg
- hepatocyte CLint at 1 µM [2]: 0.8 µL/min/1e6 cells
- half-life at 1 µM [2]: 28.9 h

SMILES: CC(C)CN(CC(C)C)c1ncc(C2(C(=O)O)CCC2)cc1Nc1ccc(Cl)cc1 [Compound 84]
- IC50 [1]: 0.4 nM
- Human Hepatocyte Remaining Percentage @ 120 min (pooled human hepatocytes): 80
- CLint scaled at 1 µM [2]: 5.7 mL/min/kg
- hepatocyte CLint at 1 µM [2]: 2.2 µL/min/1e6 cells
- half-life at 1 µM [2]: 10.4 h

SMILES: CC(C)CN(c1ccc(C2(C(=O)O)CCC2)cc1NC(=O)Nc1ccc(F)cc1F)C1CCOCC1 [Compound 25]
- IC50 [1]: 0.6 nM
- Human Hepatocyte Remaining Percentage @ 120 min (pooled human hepatocytes): 89
- CLint scaled at 1 µM [2]: 3.9 mL/min/kg
- hepatocyte CLint at 1 µM [2]: 1.5 µL/min/1e6 cells
- half-life at 1 µM [2]: 15 h

SMILES: CCOc1ncc(Nc2cc(C3(C(=O)O)CCC3)ccc2N(CC)C2CCOCC2)cn1 [Compound 117]
- IC50 [1]: 0.9 nM
- Human Hepatocyte Remaining Percentage @ 120 min (pooled human hepatocytes): 93
- CLint scaled at 1 µM [2]: 1.7 mL/min/kg
- hepatocyte CLint at 1 µM [2]: 0.7 µL/min/1e6 cells
- half-life at 1 µM [2]: 35.4 h

SMILES: CCOc1ncc(Nc2cc(C3(C(=O)O)CCC3)ccc2N(CC(C)C)C2CCOCC2)cn1 [Compound 75]
- IC50 [1]: 0.3 nM
- Human Hepatocyte Remaining Percentage @ 120 min (pooled human hepatocytes): 88
- CLint scaled at 1 µM [2]: 6.6 mL/min/kg
- hepatocyte CLint at 1 µM [2]: 2.6 µL/min/1e6 cells
- half-life at 1 µM [2]: 8.9 h

SMILES: CC(C)CN(c1ncc(C2(C(=O)O)CCC2)cc1Nc1ccc(C#N)cc1)C1CCOCC1 [Compound 91]
- IC50 [1]: 0.3 nM
- Human Hepatocyte Remaining Percentage @ 120 min (pooled human hepatocytes): 92
- CLint scaled at 1 µM [2]: 3.3 mL/min/kg
- hepatocyte CLint at 1 µM [2]: 1.3 µL/min/1e6 cells
- half-life at 1 µM [2]: 17.7 h

SMILES: CC(C)CN(CC(C)C)c1ncc(C2(C(=O)O)CCC2)cc1Nc1ccc(Cl)cn1 [Compound 107]
- IC50 [1]: 0.4 nM
- Human Hepatocyte Remaining Percentage @ 120 min (pooled human hepatocytes): 76
- CLint scaled at 1 µM [2]: 14 mL/min/kg
- hepatocyte CLint at 1 µM [2]: 5.5 µL/min/1e6 cells
- half-life at 1 µM [2]: 4.2 h

SMILES: CCN(c1ncc(C2(C(=O)O)CCC2)cc1Nc1ccc(Cl)cc1)C1CCOCC1 [Compound 120]
- IC50 [1]: 0.1 nM
- EC50 [3]: 9.1 nM
- Human Hepatocyte Remaining Percentage @ 120 min (pooled human hepatocytes): 94
- CLint scaled at 1 µM [2]: 3.5 mL/min/kg
- hepatocyte CLint at 1 µM [2]: 1.4 µL/min/1e6 cells
- half-life at 1 µM [2]: 17.1 h

SMILES: CCN(c1ccc(C2(C(=O)O)CCC2)cc1Nc1ccc(C#N)cn1)C1CCOCC1 [Compound 118]
- IC50 [1]: 0.2 nM
- Human Hepatocyte Remaining Percentage @ 120 min (pooled human hepatocytes): 85
- CLint scaled at 1 µM [2]: 8.5 mL/min/kg
- hepatocyte CLint at 1 µM [2]: 3.3 µL/min/1e6 cells
- half-life at 1 µM [2]: 6.93 h

SMILES: CC(C)N(CC1CC1)c1ncc(C2(C(=O)O)CCC2)cc1Nc1ccc(Cl)cn1 [Compound 111]
- IC50 [1]: 0.8 nM
- Human Hepatocyte Remaining Percentage @ 120 min (pooled human hepatocytes): 63
- CLint scaled at 1 µM [2]: 20 mL/min/kg
- hepatocyte CLint at 1 µM [2]: 7.7 µL/min/1e6 cells
- half-life at 1 µM [2]: 2.98 h

SMILES: CC(C)N(CC1CC1)c1ncc(C2(C(=O)O)CCC2)cc1Nc1ccc(C#N)cn1 [Compound 110]
- IC50 [1]: 1 nM
- Human Hepatocyte Remaining Percentage @ 120 min (pooled human hepatocytes): 71
- CLint scaled at 1 µM [2]: 16 mL/min/kg
- hepatocyte CLint at 1 µM [2]: 6.4 µL/min/1e6 cells
- half-life at 1 µM [2]: 3.6 h

SMILES: CC(C)CN(CC(C)C)c1ncc(C2(C(=O)O)CCC2)cc1Nc1ccc(C#N)cn1 [Compound 106]
- IC50 [1]: 0.4 nM
- Human Hepatocyte Remaining Percentage @ 120 min (pooled human hepatocytes): 69
- CLint scaled at 1 µM [2]: 18 mL/min/kg
- hepatocyte CLint at 1 µM [2]: 7 µL/min/1e6 cells
- half-life at 1 µM [2]: 3.3 h

SMILES: CC(C)CN(c1ccc(C2(C(=O)O)CCC2)cc1Nc1ccc(C#N)cn1)C1CCOCC1 [Compound 86]
- IC50 [1]: 0.3 nM
- Human Hepatocyte Remaining Percentage @ 120 min (pooled human hepatocytes): 75
- CLint scaled at 1 µM [2]: 13 mL/min/kg
- hepatocyte CLint at 1 µM [2]: 5.2 µL/min/1e6 cells
- half-life at 1 µM [2]: 4.47 h

SMILES: CCN(c1ccc(C2(C(=O)O)CCC2)cc1Nc1ccc(Cl)cn1)C1CCOCC1 [Compound 115]
- IC50 [1]: 0.1 nM
- Human Hepatocyte Remaining Percentage @ 120 min (pooled human hepatocytes): 83
- CLint scaled at 1 µM [2]: 9.3 mL/min/kg
- hepatocyte CLint at 1 µM [2]: 3.6 µL/min/1e6 cells
- half-life at 1 µM [2]: 6.35 h

SMILES: CCN(c1ncc(C2(C(=O)O)CCC2)cc1Nc1ccc(C#N)cc1)C1CCOCC1 [Compound 125]
- IC50 [1]: 0.5 nM
- Human Hepatocyte Remaining Percentage @ 120 min (pooled human hepatocytes): 97
- CLint scaled at 1 µM [2]: 2.2 mL/min/kg
- hepatocyte CLint at 1 µM [2]: 0.9 µL/min/1e6 cells
- half-life at 1 µM [2]: 26.6 h

SMILES: CC(C)CN(CC(C)C)c1ccc(C2(C(=O)O)CCC2)cc1NC(=O)Nc1ccc(F)cc1F [Compound 16]
- IC50 [1]: 1.5 nM
- Human Hepatocyte Remaining Percentage @ 120 min (pooled human hepatocytes): 101
- CLint scaled at 1 µM [2]: 1.8 mL/min/kg
- hepatocyte CLint at 1 µM [2]: 0.7 µL/min/1e6 cells
- half-life at 1 µM [2]: 31.4 h
